Assay: Clinical trials, longer-term ximelagatran treatment: ALAT elevation in patients
Format: in vivo, human
Description: Alanine aminotransferase (ALAT) is an enzyme mostly expressed in the liver (EC 2.6.1.2). It is also called serum glutamate pyruvate transaminase (SGPT) or alanine transaminase (ALT). This enzyme is release into the plasma by liver cell death, which is a normal event. However, when liver cell death increases, ALAT levels rise above the normal range. The spillover of this enzyme into blood is routinely measured as a marker of abnormal liver-cell damage. For example, alcoholic or viral hepatitis will increase ALAT levels, as will severe congestive heart failure. ALAT is also markedly raised in hepatitis and other acute liver damage. An elevated ALAT in the presence of normal levels of plasma alkaline phosphatase helps distinguish liver disease caused by liver-cell damage from diseases caused by problems in biliary ducts. Elevations of ALAT are normally measured in multiples of the upper limit of normal (ULN), with a reference range of 15-45 U/L in most laboratories. In 1987, in a study of 19,877 healthy Air Force recruits, only 99 (0.5%) had confirmed ALAT elevations (as reviewed in Green & Flamm (2002) Gastroenterology 123:1367-1384).
Subject to the future regulatory approval of ximelagatran, regular liver function testing (LFT) using an appropriate algorithm may be required if ximelagatran is used for treatment periods exceeding a month. Studies are currently ongoing to try and establish the mechanism of the ALAT elevations, and their hepatic and overall clinical significance.

## CCOC(=O)CN[C@@H](C(=O)N1CC[C@H]1C(=O)NCc1ccc(/C(N)=N\O)cc1)C1CCCCC1 [ximelagatran, EtOOC—CH2—(R)Cgl-Aze-Pab-OH]
longer-term treatment
  symptoms accompanying ALAT increases: mainly asymptomatic
longer-term treatment (>35 days), 1.2% in the comparator groups
  patients exhibiting levels of alanine aminotransferase (ALAT) 3-fold or more above the upper limit of normal (≧3×ULN): 7.9%
Regardless of whether treatment was continued or discontinued
  reversibility of ALAT increases: reversible in most patients
usually, from start of treatment
  time of occurrence of the increase in ALAT values: ≤ 6 months
